According to PubChem BioAssay AID180 (DTP/NCI, 2004):
Values joined by “and” are separate entries in the source; they are usually repeats but may differ in a detail not shown here. Equal values may be shown once.

Test system: BDF1 mice, Adenocarcinoma 755 s.c., tumor weight T/C
Test: NCI In Vivo Anticancer Drug Screen. Data for tumor model Adenocarcinoma 755 (subcutaneous) in B6D2F1 (BDF1) mice
Conditions: endpoint: mean tumor weight, higher = larger tumour
Procedure, shortened: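 Tumor-bearing mice receive test compound while controls get vehicle alone. Antitumor effect is scored from survival or tumor dimensions as a T/C quotient.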

[1] = dose: 25.0 mg/kg/injection, schedule: Q01DX011 (ip), vehicle: methylcellulose (MC)
[2] = dose: 75.0 mg/kg/injection, schedule: Q01DX011 (ip), vehicle: methylcellulose (MC)
[3] = dose: 225.0 mg/kg/injection, schedule: Q01DX011 (ip), vehicle: methylcellulose (MC)
[4] = dose: 30.0 mg/kg/injection, schedule: Q01DX011 (ip), vehicle: carboxymethylcellulose (CMC)
[5] = dose: 60.0 mg/kg/injection, schedule: Q01DX011 (ip), vehicle: carboxymethylcellulose (CMC)
[6] = dose: 120.0 mg/kg/injection, schedule: Q01DX011 (ip), vehicle: carboxymethylcellulose (CMC)

For NC(N)=Nc1nc2ccccc2s1, the T/C (dose: 6.25 mg/kg/injection, schedule: Q01DX011 (ip), vehicle: carboxymethylcellulose (CMC)) was 108 % of control, the T/C (dose: 6.25 mg/kg/injection, schedule: Q01DX011 (ip), vehicle: other) was 84 % of control and the T/C (dose: 6.25 mg/kg/injection, schedule: Q01DX011 (ip), vehicle: water) was 105 % of control. For the same compound, the T/C (dose: 12.5 mg/kg/injection, schedule: Q01DX011 (ip), vehicle: carboxymethylcellulose (CMC)) was 53 % of control, the T/C (dose: 25.0 mg/kg/injection, schedule: Q01DX011 (ip), vehicle: other) was 90 % of control and the T/C (dose: 25.0 mg/kg/injection, schedule: Q01DX011 (ip), vehicle: water) was 84 % of control. The T/C (dose: 50.0 mg/kg/injection, schedule: Q01DX011 (ip), vehicle: water) was 48 % of control.

For CCC1CN1CC1CO1 (stereo not drawn), the T/C (dose: 5.0 mg/kg/injection, schedule: Q01DX011 (ip), vehicle: saline) was 96 % of control and the T/C (dose: 10.0 mg/kg/injection, schedule: Q01DX011 (ip), vehicle: saline) was 99 % of control.

With CC(C)Cn1cnc2c(SCC(=O)O)nc(N)nc21 the T/C [1] was 114 % of control, the T/C [2] was 85 % of control and the T/C [3] was 114 % of control.

In the case of CCCCn1cnc2c(SCc3ccc(Cl)cc3Cl)nc(N)nc21, the T/C (dose: 50.0 mg/kg/injection, schedule: Q01DX011 (ip), vehicle: methylcellulose (MC)) is reported as 61 % of control, the T/C (dose: 100.0 mg/kg/injection, schedule: Q01DX011 (ip), vehicle: methylcellulose (MC)) is reported as 46 % of control and the T/C (dose: 200.0 mg/kg/injection, schedule: Q01DX011 (ip), vehicle: methylcellulose (MC)) is reported as 35 % of control. The T/C (dose: 400.0 mg/kg/injection, schedule: Q01DX011 (ip), vehicle: methylcellulose (MC)) was 5 % of control.

O=C(Nc1cccc(C2=NCCN2)c1)c1ccc(N=Nc2ccc(C(=O)Nc3cccc(C4=NCCN4)c3)cc2)cc1 was tested, and the T/C (dose: 15.0 mg/kg/injection, schedule: Q01DX011 (ip), vehicle: methylcellulose (MC)) was 81 % of control, the T/C (dose: 30.0 mg/kg/injection, schedule: Q01DX011 (ip), vehicle: methylcellulose (MC)) was 70 % of control and the T/C (dose: 60.0 mg/kg/injection, schedule: Q01DX011 (ip), vehicle: methylcellulose (MC)) was 68 % of control. For the same compound, the T/C (dose: 120.0 mg/kg/injection, schedule: Q01DX011 (ip), vehicle: methylcellulose (MC)) was 70 % of control.

CC(=O)OCC1OC(n2cnc3c(=O)[nH]c(N)nc32)C(OC(C)=O)C1OC(C)=O (stereo not drawn) was tested, and the T/C [4] was 59 % of control, the T/C [5] was 49 % of control and the T/C [6] was 57 % of control. The T/C (dose: 240.0 mg/kg/injection, schedule: Q01DX011 (ip), vehicle: carboxymethylcellulose (CMC)) was 51 % of control, the T/C (dose: 400.0 mg/kg/injection, schedule: Q01DX011 (ip), vehicle: carboxymethylcellulose (CMC)) was 87 % of control and the T/C (dose: 600.0 mg/kg/injection, schedule: Q01DX011 (ip), vehicle: carboxymethylcellulose (CMC)) was 83 % of control.

With CC(=O)OC1C(CO)OC(n2cnc3c(=S)nc[nH]c32)C1OC(C)=O (stereo not drawn) the T/C (dose: 3.75 mg/kg/injection, schedule: Q01DX011 (ip), vehicle: carboxymethylcellulose (CMC)) was 38 % of control, the T/C (dose: 7.5 mg/kg/injection, schedule: Q01DX011 (ip), vehicle: carboxymethylcellulose (CMC)) was 10 % of control and the T/C (dose: 15.0 mg/kg/injection, schedule: Q01DX011 (ip), vehicle: carboxymethylcellulose (CMC)) was 5 % of control. For the same compound, the T/C [4] was 5 % of control and 7 % of control, the T/C [5] was 7 % of control and the T/C [6] was 6 % of control.

In the case of Fc1cccc(CSc2ncnc3c2ncn3C2CCCS2)c1 (stereo not drawn), the T/C [1] is reported as 61 % of control, the T/C [2] is reported as 62 % of control and the T/C [3] is reported as 32 % of control.

In the case of CC(=O)OCC(=O)[C@@]1(O)CC[C@H]2[C@@H]3CCC4=CC(=O)C=C[C@]4(C)[C@@]3(F)[C@@H](O)C[C@@]21C, the T/C (dose: 0.07 mg/kg/injection, schedule: Q01DX011 (sc), vehicle: steriod suspending solution) is reported as 90 % of control, the T/C (dose: 0.14 mg/kg/injection, schedule: Q01DX011 (sc), vehicle: steriod suspending solution) is reported as 77 % of control and the T/C (dose: 0.28 mg/kg/injection, schedule: Q01DX011 (sc), vehicle: steriod suspending solution) is reported as 41 % of control. The T/C (dose: 1.12 mg/kg/injection, schedule: Q01DX011 (sc), vehicle: steriod suspending solution) was 54 % of control, the T/C (dose: 2.25 mg/kg/injection, schedule: Q01DX011 (sc), vehicle: steriod suspending solution) was 38 % of control and the T/C (dose: 4.5 mg/kg/injection, schedule: Q01DX011 (sc), vehicle: steriod suspending solution) was 26 % of control and 38 % of control. The T/C (dose: 9.0 mg/kg/injection, schedule: Q01DX011 (sc), vehicle: steriod suspending solution) was 21 % of control, the T/C (dose: 18.0 mg/kg/injection, schedule: Q01DX011 (sc), vehicle: steriod suspending solution) was 17 % of control and the T/C (dose: 24.0 mg/kg/injection, schedule: Q01DX011 (sc), vehicle: steriod suspending solution) was 9 % of control and 23 % of control. For the same compound, the T/C (dose: 25.0 mg/kg/injection, schedule: Q01DX011 (sc), vehicle: steriod suspending solution) was 23 % of control and 28 % of control, the T/C (dose: 36.0 mg/kg/injection, schedule: Q01DX011 (sc), vehicle: steriod suspending solution) was 11 % of control and the T/C (dose: 50.0 mg/kg/injection, schedule: Q01DX011 (sc), vehicle: steriod suspending solution) was 13 % of control and 24 % of control. For the same compound, the T/C (dose: 100.0 mg/kg/injection, schedule: Q01DX011 (sc), vehicle: steriod suspending solution) was 9 % of control and 11 % of control.
